Measurements: the supplement of paper PMC10949913

Legend:
Details in all cases: 48 h
[1] = test system: NCI-H295R; assay: area under concentration-response curve (viability) (AUC (a.u.)); higher = less active
How it was run: (§1)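 Luminescence from CellTiter-Glo, read after 48 h, measured three adrenocortical carcinoma cell lines treated in 1,536-well plates with library compounds at 11 concentrations. Values were normalised per plate to vehicle and empty-well controls. The AC50 and area under the curve come from fitted concentration-response curves in inhibitory or non-responding classes only.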

[2] = test system: NCI-H295R; assay: AC50 viability; higher = less potent
How it was run: as §1

[3] = test system: CU-ACC2; assay: area under concentration-response curve (viability) (AUC (a.u.)); higher = less active
How it was run: as §1

[4] = test system: CU-ACC1; assay: as above
How it was run: as §1

| SMILES | area under concentration-response curve [1] | AC50 viability [2] [µM] | area under concentration-response curve [3] | area under concentration-response curve [4] |
| --- | --- | --- | --- | --- |
| CCOc1cc2c(c(F)c1OCC)C(=N)N(CC(=O)c1cc(N3CCOCC3)c(OC)c(C(C)(C)C)c1)C2 | 492 | 20.9 | – | – |
| C[C@@H]1C[C@H]2[C@@H]3CC\C4=C\C(=O)\C=C/[C@]4(C)[C@@]3(Cl)[C@@H](O)C[C@]2(C)[C@@]1(OC(=O)C5=CC=CO5)C(=O)CCl | 580 | 37.2 | – | – |
| CCN(CC)CCCCNc1ncc2cc(-c3cc(OC)cc(OC)c3)c(NC(=O)NC(C)(C)C)nc2n1 | 476 | 23.5 | – | – |
| CC(=O)N1CCN(c2ccc(OC[C@H]3CO[C@](Cn4ccnc4)(c4ccc(Cl)cc4Cl)O3)cc2)CC1 | 342 | 20.9 | – | – |
| O=C(Nc1nc2cccc(-c3ccc(CN4CC[S+](=O)([O-])CC4)cc3)n2n1)C1CC1 | 535 | 18.6 | – | – |
| COC(=O)Nc1nc2cc([S+]([O-])c3ccccc3)ccc2[nH]1 (stereo unspecified) | 522 | 11.8 | – | – |
| Clc1ccc(CCC(Cn2ccnc2)Sc2c(Cl)cccc2Cl)cc1 (stereo unspecified) | 491 | 33.2 | – | – |
| CN(C)CC(=O)N1CCC(CC1)C2=CC=C(NC(=O)C3=NC(=C[NH]3)C#N)C(=C2)\C4=C\CCCC4 | 553 | 23.5 | – | – |
| O=C(c1ccc(OCCN2CCCCC2)cc1)c1c(-c2ccc(O)cc2)sc2cc(O)ccc12 | 557 | 23.5 | – | – |
| CN(C)CC[C@H](CSc1ccccc1)Nc1ccc([S+](=O)([O-])NC(=O)c2ccc(N3CCN(Cc4ccccc4-c4ccc(Cl)cc4)CC3)cc2)cc1[N+](=O)[O-] | 535 | 18.6 | – | – |
| COc1cc(Nc2ncc(F)c(Nc3ccc4c(n3)N(COP(=O)(O)O)C(=O)C(C)(C)O4)n2)cc(OC)c1OC | 512 | 14.8 | – | – |
| CCOC(=O)C(C)(C)Oc1ccc(Cl)cc1 | 444 | – | 453 | 451 |
| CCn1c(=O)c2c(nc(/C=C/c3ccc(OC)c(OC)c3)n2C)n(CC)c1=O | 431 | – | 434 | 431 |
| CO[C@H]1/C=C/O[C@@]2(C)Oc3c(C)c(O)c4c(O)c(c5c(nc6cc(C)ccn65)c4c3C2=O)NC(=O)/C(C)=C\C=C\[C@H](C)[C@H](O)[C@@H](C)[C@@H](O)[C@@H](C)[C@H](OC(C)=O)[C@@H]1C | 529 | – | 557 | 475 |
| CC(C[N+](C)(C)C)OC(N)=O (stereo unspecified) | 591 | – | 662 | 569 |
| Cc1cn[nH]c1 | 524 | – | 575 | 492 |
| NC(=O)c1cnccn1 | 382 | – | 301 | 346 |
| O=C(O)[C@@H](c1ccc(OCc2ccc3ccccc3n2)cc1)C1CCCC1 | 493 | – | 561 | 454 |
| O=C(O)c1ccc(CCCc2ccc(OCCc3ccc(F)cc3)cc2)o1 | 548 | – | 616 | 536 |
| COc1nccc(-c2c(-c3ccc(F)cc3)ncn2C2CCC(O)CC2)n1 (stereo unspecified) | 550 | – | 590 | 523 |
| COc1nc(-c2ccc3c(c2)OCO3)n(-c2ccc(NC(=O)CSc3ccccc3)cc2)n1 | 573 | – | 611 | 408 |
| Nc1nc(OC(c2ccc(-c3cccc(F)c3)cc2)C(F)(F)F)cc(-c2ccc(C[C@H](N)C(=O)O)cc2)n1 (stereo partly specified) | 555 | – | 519 | 546 |
| OC(=O)\C1=C\N(C2=CC=C(F)C=C2)C3=C(C=C(F)C(=C3)N4CCNCC4)C1=O | 497 | – | 549 | 485 |
| CCOC(=O)Nc1ccc(NCc2ccc(F)cc2)nc1N | 504 | – | 439 | 446 |
| COC(=O)[C@@H](N)CCCNC(=N)N[N+](=O)[O-] | 557 | – | 610 | 520 |

| SMILES | area under concentration-response curve [1] | AC50 viability [2] [µM] | area under concentration-response curve [3] | area under concentration-response curve [4] |
| --- | --- | --- | --- | --- |
| CCOc1cc(C(=O)Nc2ccc(Cl)c(-c3nc4ccccc4[nH]3)c2)cc(OCC)c1OCC | 549 | – | 618 | 477 |
| CN(C)[C@H]\1[C@@H]2[C@@H](O)[C@@H]\3C(=C)C4=C(C(=CC=C4)O)C(=O)C3=C(\O)[C@@]2(O)C(=O)\C(=C1O)C(N)=O | 540 | – | 473 | 493 |
| COc1ccc(C(=O)N2CCCC2=O)cc1 | 573 | – | 655 | 533 |
| O=C1NC(=O)/C(=C/c2ccc3nccnc3c2)S1 | 496 | – | 443 | 452 |
| C=CC(=O)N[C@H]1CCOC[C@H]1Nc1ncc2cc(-c3c(Cl)c(OC)cc(OC)c3Cl)ccc2n1 | 453 | – | 554 | 458 |
| CN(CCOc1ccc(N[S+](C)(=O)[O-])cc1)CCc1ccc(N[S+](C)(=O)[O-])cc1 | 586 | – | 637 | 541 |
| CC(C)(CO)n1cc(C(=O)c2cncc(NC(=O)Cc3ccc(Cl)cn3)c2)c2cnc(N)nc21 | 496 | – | 576 | 532 |
| CCCOc1ccn2c(C(C)=O)cc(-c3ccccc3[S+](C)(=O)[O-])c2c1 | 527 | – | 445 | 485 |
| CC(C)Oc1ccc(-c2nc(-c3cccc4c3CC[C@@H]4NCCO)no2)cc1C#N | 481 | – | 502 | 370 |
| COc1cc[nH]c2ncc(C(=O)C(=O)N3CCN(C(=O)c4ccccc4)C[C@H]3C)c1-2 | 560 | – | 632 | 545 |
| CCC(C)N1\N=C/N(C1=O)C2=CC=C(C=C2)N3CCN(CC3)C4=CC=C(OC[C@H]5CO[C@@](C[N]6C=NC=N6)(O5)C7=CC=C(Cl)C=C7Cl)C=C4 (stereo partly specified) | 574 | – | 676 | 556 |
| CNCC(O)c1ccc(O)cc1 (stereo unspecified) | 579 | – | 618 | 565 |
| CCNC(=O)[C@H]1O[C@@H](n2cnc3c(N)nc(NCCc4ccc(CCC(=O)O)cc4)nc32)[C@H](O)[C@@H]1O | 537 | – | 587 | 404 |
| O=C(O)C(=O)Nc1cccc(-c2nnn[nH]2)c1 | 553 | – | 645 | 547 |
| Cn1cc(-c2ccc3nnc(Sc4ccc5ncccc5c4)n3n2)cn1 | 525 | – | 447 | 516 |
| N[S+](=O)([O-])NCCNc1nonc1/C(=N/O)Nc1ccc(F)c(Br)c1 | 468 | – | 595 | 524 |
| CC(Oc1ccc(O)cc1)(P(=O)(O)O)P(=O)(O)O | 458 | – | 508 | 456 |
| CN(C)c1ccc(O)c2c1C[C@H]1C[C@H]3[C@H](N(C)C)C(O)=C(C(N)=O)C(=O)[C@@]3(O)C(O)=C1C2=O | 473 | – | 524 | 453 |
| CCN1\C(=C(C(=O)NC)/C(=O)C2=C1N=C(C=C2)C#CC(C)(O)COC)N (stereo unspecified) | 510 | – | 579 | 482 |
| C[C@]\12CCC(=O)\C=C1[C@@H]3C[C@@H]3[C@@H]4[C@@H]2CC[C@@]5(C)[C@H]4[C@@H]6C[C@@H]6[C@@]57CCC(=O)O7 | 549 | – | 602 | 509 |
| [O-]C(=O)C/1=N/C(=O)NC(=O)N1 | 551 | – | 608 | 418 |
| CCCC1=N[N](C)C2=C1\N=C(/NC2=O)C3=CC(=CC=C3OCC)[S+]([O-])(=O)N4CCN(C)CC4 | 539 | – | 610 | 561 |
| [NH2][Pt]([NH2])([Cl])[Cl] | 514 | – | 576 | 528 |
| C[C@H]1C[C@@H]2[C@H](CC[C@@]3(C)[C@H]2CC[C@]3(OC(C)=O)C(C)=O)[C@@]\4(C)CCC(=O)\C=C14 | 557 | – | 618 | 554 |
